# Results: patent US20230242679A1, “BISPECIFIC ANTIBODY THERAPIES” (priority 2022, published 2023)
# “Also recorded” adds a separate entry of the source. Where two headings read alike, the source gives them in different places.
# Experiments:
# CD19+Raji tumor cells = experiment: Raji target cell killing by CD19 CAR T-cells (flow cytometry, 7-AAD); format: cell-based, human; details: 0.36-225 nM; 24 hours; Effector:Target 10:1, 5:1, 1:1; listed as CT01681, monosodium salt
# From the text: The impact of CT01681 on the efficacy of CD19-targeting CAR T-cells in vitro was studied as a surrogate measure of the impact of CTO1681 on T cell function downstream of administering bispecific antibody therapy to a subject. […] CD3 T cells were sorted from one healthy donor PBMCs, stimulated for a short period of time and transduced with CD19 CAR-T lentivirus (LV) containing CD28 and CD3ζ domains. CD19 CAR T-cells were expanded for 6 days and used in the assay. CD19-targeting CD3 T-cells were treated with 5 increasing concentrations of CT01681 (0.36 nM, 1.8 nM, 9 nM, 45 nM, and 225 nM) or vehicle for 30 minutes prior to, and during co-culture with CD19+Raji lymphoma target cells. Media alone, vehicle, and positive control (dexamethasone) wells were included. […] Following incubation, supernatant was collected and levels of pro-inflammatory cytokines IL-6 and TNF-α were measured by multiplex Luminex assay and […] was measured via time-resolved fluorescence resonance energy transfer (TR-FRET) assay. These cytokines were selected for quantification as they are early cytokines released following CAR T-cell infusion and bispecific antibody therapy administration in vivo that causes hyperactivation of the immune system resulting in acute systemic inflammation, CRS, multiorgan failure, and possible death. […]
# [1] = tested on: CRS in SCID or humanized mice with Raji-luc tumor cells; experiment: Mouse model of Raji-luc tumor with CAR-T induced CRS (Example 2); details: IP, BID for 7 days
# [2] = tested on: CD19-targeting CAR T-cells co-cultured with CD19+Raji lymphoma target cells; experiment: Cytokine levels in co-culture of CD19 CAR T-cells with Raji cells; format: cell-based, human; details: for Levels of IL-6 / Levels of TNF-α / Levels of IFN-γ: CAR T-cells:Raji cells 10:1; for Levels of IL-6: FIG. 1A; for Levels of TNF-α: FIG. 1B; for Levels of IFN-γ: FIG. 1C
# From the text: The impact of CT01681 on the efficacy of CD19-targeting CAR T-cells in vitro was studied as a surrogate measure of the impact of CTO1681 on T cell function downstream of administering bispecific antibody therapy to a subject. […] CD3 T cells were sorted from one healthy donor PBMCs, stimulated for a short period of time and transduced with CD19 CAR-T lentivirus (LV) containing CD28 and CD3ζ domains. CD19 CAR T-cells were expanded for 6 days and used in the assay. CD19-targeting CD3 T-cells were treated with 5 increasing concentrations of CT01681 (0.36 nM, 1.8 nM, 9 nM, 45 nM, and 225 nM) or vehicle for 30 minutes prior to, and during co-culture with CD19+Raji lymphoma target cells. Media alone, vehicle, and positive control (dexamethasone) wells were included. Following initial treatment, CAR T-cells (Effectors) were co-cultured with fluorescently labeled CD19+Raji tumor cells (Target cells) at 3 different Effector: Target cell ratios (10:1, 5:1 and 1:1) and treated with 5 different concentrations of CT01681 or vehicle for 24 hours. Target cells (Raji cells) were fluorescently labelled with CPD (eBioscience™ Cell Proliferation Dye eFluor™) prior to co-culture to distinguish the Raji cells from the effector cells and allow for analysis of target viability by flow cytometry. Following incubation, supernatant was collected and levels of pro-inflammatory cytokines IL-6 and TNF-α were measured by multiplex Luminex assay and […] was measured via time-resolved fluorescence resonance energy transfer (TR-FRET) assay. These cytokines were selected for quantification as they are early cytokines released following CAR T-cell infusion and bispecific antibody therapy administration in vivo that causes hyperactivation of the immune system resulting in acute systemic inflammation, CRS, multiorgan failure, and possible death. In addition, flow cytometry was used to measure the level of Raji tumor/target cell death following CAR T treatment across CTO1681 conditions to measure impact of CTO1681 with CAR T-cell efficacy. Co-cultures were stained with viability dye 7-AAD for measuring viability.
# influenza (H5N1) = details: Gemmus Pharma in vivo influenza (H5N1) studies; listed as CT01681, monosodium salt; cited from earlier work
# influenza (H1N1) = format: in vivo, mice; details: for IL-2 in vivo / IL-6 in vivo / IL-10 in vivo: CytoAgents in vivo influenza (H1N1) studies
# normal human PBMC = experiment: Cytokine release assay in normal human PBMC stimulated with LPS or Poly (I:C); format: cell-based; details: for Number of cytokines reduced of those analyzed: LPS or Poly(I:C), pooled and individual donor results
# [3] = listed as CT01681, monosodium salt
# [4] = Effector:Target 10:1, 0.36-225 nM, 24 hours, Luminex
# [5] = LPS, 24 h supernatant, CTO1681 750 μM
# [6] = Poly(I:C), 24 h supernatant, CTO1681 750 μM
smiles,measurement,setting,value
"CC#CC[C@H](C)[C@H](O)/C=C/[C@@H]1[C@H]2c3cccc(CCCC(=O)[O-])c3O[C@H]2C[C@H]1O.[Na+] [CTO1681, (+)-[1R, 2R, 3aS, 8bS]-2,3,3a,8b-tetrahydro-2-hydroxy-1-[(E)-(3S,4S)-3-hydroxy-4-methyl-1-octen-6-ynyl)-1Hcyclopenta[b]benzofuran-5-butanoic acid, monosodium salt]",Effect on tumor/target cell killing efficacy of CD19 CAR T-cells,CD19+Raji tumor cells,does not interfere; also recorded: absence of an effect; also recorded: did not impact or interfere
same,Survival benefits versus dexamethasone,[1],greater survival benefits
same,Levels of IL-6,[2]; [3],dose-dependently lowers
same,Levels of IL-6,[2]; monosodium salt,dose-dependently reduced
same,Levels of TNF-α,[2]; [3],dose-dependently lowers
same,Levels of TNF-α,[2]; monosodium salt,dose-dependently reduced
same,Levels of IFN-γ,[2]; [3],dose-dependently lowers
same,Levels of IFN-γ,[2]; monosodium salt,dose-dependently reduced
same,Maximum reduction of IL-6,[2]; [4],~23%
same,Maximum reduction of TNF-α,[2]; [4],approximately 50%
same,Maximum reduction of IFN-γ,"[2]; Effector:Target 10:1, 0.36-225 nM, 24 hours, TR-FRET",~26%
same,IL-6 with increasing concentrations,"[2]; three CAR-T:Raji ratios (10:1, 5:1, 1:1), FIG. 1D",reduction
same,TNF-α with increasing concentrations,"[2]; three CAR-T:Raji ratios (10:1, 5:1, 1:1), FIG. 1E",reduction
same,IFN-γ with increasing concentrations,"[2]; three CAR-T:Raji ratios (10:1, 5:1, 1:1), FIG. 1F",reduction
same,IL-2 in vivo,influenza (H5N1),reduced; also recorded: significantly suppressed
same,IL-6 in vivo,influenza (H5N1),reduced; also recorded: significantly suppressed
same,IL-8 in vivo,influenza (H5N1),reduced; also recorded: significantly suppressed
same,IL-10 in vivo,influenza (H5N1),reduced; also recorded: significantly suppressed
same,IL-2 in vivo,influenza (H1N1); [3],significantly suppressed
same,IL-6 in vivo,influenza (H1N1); [3],significantly suppressed
same,IL-10 in vivo,influenza (H1N1); [3],significantly suppressed
same,IL-2 in vivo,influenza (H1N1); monosodium salt,reduced
same,IL-6 in vivo,influenza (H1N1); monosodium salt,reduced
same,IL-10 in vivo,influenza (H1N1); monosodium salt,reduced
same,IL-8 in vivo,"influenza (H1N1); mouse, in vivo",significantly suppressed
same,IFN-α concentrations in vivo,"influenza (H1N1); mouse, in vivo, listed as CT01681, monosodium salt",no significant repression
same,IFN-α concentrations in vivo,"influenza (H1N1); mouse, in vivo, monosodium salt",not suppressed
same,Nominal reduction in ex vivo production of IFNα,"normal human PBMC; LPS or Poly(I:C) stimulated PBMC, statistically significant",less than 2 fold
same,Number of cytokines reduced of those analyzed,normal human PBMC; [3],21 of the 29
same,Number of cytokines reduced of those analyzed,normal human PBMC; monosodium salt,21
same,Cytokine response CCL2 (MCP-1) (significant reduction),normal human PBMC; [5],YES
same,Cytokine response CCL3 (MIP1 α) (significant reduction),normal human PBMC; [5],YES
same,Cytokine response CCL5 (RANTES) (significant reduction),normal human PBMC; [5],YES
same,Cytokine response CXCL9 (MIG) (significant reduction),normal human PBMC; [5],YES
same,Cytokine response CXCL10 (IP-10) (significant reduction),normal human PBMC; [5],YES
same,Cytokine response FGF (significant reduction),normal human PBMC; [5],YES
same,Cytokine response GM-CSF (significant reduction),normal human PBMC; [5],YES
same,Cytokine response IFN-α2 (significant reduction),normal human PBMC; [5],YES
same,Cytokine response IFN-γ (significant reduction),normal human PBMC; [5],YES
same,Cytokine response IL-1α (significant reduction),normal human PBMC; [5],YES
same,Cytokine response IL-1β (significant reduction),normal human PBMC; [5],YES
same,Cytokine response IL-4 (significant reduction),normal human PBMC; [5],YES
same,Cytokine response IL-5 (significant reduction),normal human PBMC; [5],YES
same,Cytokine response IL-9 (significant reduction),normal human PBMC; [5],YES
same,Cytokine response IL-12 (significant reduction),normal human PBMC; [5],YES
same,Cytokine response IL-13 (significant reduction),normal human PBMC; [5],YES
same,Cytokine response IL-15 (significant reduction),normal human PBMC; [5],YES
same,Cytokine response IL-17 (significant reduction),normal human PBMC; [5],YES
same,Cytokine response IL-18 (significant reduction),normal human PBMC; [5],YES
same,Cytokine response PDGF (significant reduction),normal human PBMC; [5],YES
same,Cytokine response TNF-α (significant reduction),normal human PBMC; [5],YES
same,Cytokine response CCL2 (MCP-1) (significant reduction),normal human PBMC; [6],YES
same,Cytokine response CCL5 (RANTES) (significant reduction),normal human PBMC; [6],YES
same,Cytokine response CXCL9 (MIG) (significant reduction),normal human PBMC; [6],YES
same,Cytokine response CXCL10 (IP-10) (significant reduction),normal human PBMC; [6],YES
same,Cytokine response IFN-α2 (significant reduction),normal human PBMC; [6],YES
same,Cytokine response IFN-γ (significant reduction),normal human PBMC; [6],YES
same,Cytokine response IL-1α (significant reduction),normal human PBMC; [6],YES
same,Cytokine response IL-1β (significant reduction),normal human PBMC; [6],YES
same,Cytokine response IL-4 (significant reduction),normal human PBMC; [6],YES
same,Cytokine response IL-5 (significant reduction),normal human PBMC; [6],YES
same,Cytokine response IL-12 (significant reduction),normal human PBMC; [6],YES
same,Cytokine response IL-13 (significant reduction),normal human PBMC; [6],YES
same,Cytokine response IL-15 (significant reduction),normal human PBMC; [6],YES
same,Cytokine response IL-18 (significant reduction),normal human PBMC; [6],YES
same,Cytokine response PDGF (significant reduction),normal human PBMC; [6],YES
same,Cytokine response TNF-α (significant reduction),normal human PBMC; [6],YES
